Test results reported in patent US8361994B2, “Primary amine diazeniumdiolate heterocyclic derivatives” (Merck Sharp & Dohme Corp, priority 2011, dated 2013).

Test system: Male beagle dogs
Assay: canine telemetry protocol, blood pressure reduction efficacy
Assay type: in vivo
Conditions: change from baseline, 3 mg/kg, oral gavage; for ΔPP (mm Hg) 1-6 h / ΔPP (mm Hg) 6-12 h / ΔPP (mm Hg) 12-18 h: pulse pressure; for ΔSBP (mm Hg) 1-6 h / ΔSBP (mm Hg) 6-12 h / ΔSBP (mm Hg) 12-18 h: systolic blood pressure
Procedure: Compounds of the invention were evaluated for blood pressure reduction efficacy using the following canine telemetry protocol described below.
Male beagle dogs (approximately 1-3 years old) with a body weight of between 10 and 16 kg were surgically implanted with DSI radiotelemetry devices (model: TL11M2-D70-PCT). Briefly, under an inhalant anesthesia, isoflurane/oxygen mixture (1-3.5%/to effect), the body of the telemetry device was positioned and secured intra-abdominally. Subsequently, the arterial catheter of the telemetry device was passed subcutaneously to the inguinal area and introduced into the femoral artery and advanced to the level of the descending aorta. The catheter was secured with 2-0 silk ligatures. The muscle and underlying fascia was closed over the catheter using absorbable suture and the skin was closed using non-absorbable suture. The animals were allowed a minimum recovery period of 2 weeks between surgery and the evaluation of test compounds.
Compound evaluation consisted of a 3 day paradigm at a 3 mg/kg dose. On the first day, no compounds were administered during a 24 hour period of baseline data collection. Blood pressure and heart rate data were collected continuously for one minute periods at 10 minute intervals. On the days of compound administration half the animals received test article with the other half receiving the vehicle used for compound formulation. All test materials were administered by oral gavage in a volume of 1 mL/kg. Data are expressed either as raw values (mm Hg or beats per minute) or as the change from baseline (average value for about 12 hours in low activity period prior to dosing). Change is SBP (systolic blood pressure) and PP (pulse pressure) over time is shown below: […]

Compound	ΔPP (mm Hg) 1-6 h	ΔPP (mm Hg) 6-12 h	ΔPP (mm Hg) 12-18 h	ΔSBP (mm Hg) 1-6 h	ΔSBP (mm Hg) 6-12 h	ΔSBP (mm Hg) 12-18 h
CC(C)(C)NC(=O)N1CC[C@@H](O/N=[N+](\[O-])NC(C)(C)C)C1 [Example 9, O^2-[(3R)-1-(tert-butylcarbamoyl)pyrrolidin-3-yl]1-(N-tert-butylamino)diazen-1-ium-1,2-diolate]	−23 mm Hg	−27 mm Hg	−11 mm Hg	−24 mm Hg	−25 mm Hg	−18 mm Hg
CC(C)(C)N/[N+]([O-])=N/OC1CCN(c2ccc(C#N)cn2)CC1 [Example 22, O^2-[1-(5-cyanopyridin-2-yl)piperidin-4-yl]1-(N-tert-butylamino)diazen-1-ium-1,2-diolate]	−15 mm Hg	−17 mm Hg	−16 mm Hg	−19 mm Hg	−18 mm Hg	−21 mm Hg
CC(C)(C)N/[N+]([O-])=N/O[C@@H]1CCN(c2cccc(C#N)c2)C1 [Example 32, O^2-[(3R)-1-(3-cyanophenyl)pyrrolidin-3-yl]1-(N-tert-butylamino)diazen-1-ium-1,2-diolate]	−7 mm Hg	−12 mm Hg	−13 mm Hg	−10 mm Hg	−17 mm Hg	−17 mm Hg
Cc1cccc(N2CC[C@@H](O/N=[N+](\[O-])NC(C)(C)C)C2=O)c1 [Example 36, O^2-[(3R)-1-(3-methylphenyl)-2-oxopyrrolidin-3-yl]1-(N-tert-butylamino)diazen-1-ium-1,2-diolate]	−9 mm Hg	−7 mm Hg	−4 mm Hg	−23 mm Hg	−17 mm Hg	−14 mm Hg
